“Also recorded” adds a separate entry of the source.
Key:
[1] = test system: myeloid cells (CD11b+) and T lymphocyte (CD3+) populations in the tumor; experiment: Gene expression of FACS double-sorted tumor infiltrating leukocytes from MMTV-PyMT tumors; format: in vivo, mouse
Method: Tumor cells were isolated and processed as previously described. To enrich for CD45^+ immune cells, EPCAM^+ tumor cell depletion was carried out. Whole tumor cell suspension was incubated with biotinylated anti-EPCAM antibody (MACS Miltenyi cat. #130-101-859, clone caa7-9G8) for 10 minutes followed by incubation with Anti-Biotin Microbeads (MACS Miltenyi cat. #130-090-485) for 15 minutes at 4° C. in the dark. […] Following negative selection, EPCAM-depleted cells were stained for anti-mouse CD45 Alex FLOUR® 488 (BioLegend cat. #103121, clone 30-F11), anti-mouse CD3 BV421 (BioLegend cat. #100227, clone 17A2), anti-mouse CD11b APC (BioLegend cat. #101211, clone M1/70), and anti-mouse CD19 (BioLegend cat. #115507, clone 6D5). 7-AAD Viability Staining Solution (BioLegend cat. #420403) was applied to the cells 10 minutes prior to sorting on the BD FACSAria. CD45+/CD19-/7-AAD-/CD3+ cells and CD45+/CD19-/7-AAD-/CD11b+ cells were sorted into DMEM medium (Life Technologies cat. #11995-065) containing 2% FBS at 4° C. Cells were pelleted and immediately lysed in RNEASY® RLT buffer (RNEASY® Mini Plus Kit, Qiagen cat. #74134) containing 2-mercaptoethanol. RNA was isolated according to RNEASY® instructions in combination with RNase-Free DNase Set (Qiagen cat. #79254) standard protocol, and quality was verified with the Nanodrop™ Spectrophotometer. To obtain adequate amounts of RNA tumors from 5 mice were pooled together for each “sample”.
All procedures were performed at Boston University Microarray Resource Facility as described in the GENECHIP® Whole Transcript (WT) Plus Reagent Kit Manual (Affymetrix, Santa Clara, Calif.). Briefly, the total RNA was isolated using an RNEASY® kit (Qiagen), and the sample integrity was verified using RNA 6000 Pico Assay RNA chips run in Agilent 2100 Bioanalyzer (Agilent Technologies). The total RNA (200 ng) was reverse transcribed using GENECHIP® WT PLUS Reagent Kit (Affymetrix). The obtained cDNA was used as a template for in vitro transcription using GeneChip® WT Expression Kit (Life Technologies). The obtained antisense cRNA was purified using Nucleic Acid Binding Beads (GENECHIP® WT PLUS Reagent Kit, Affymetrix) and used as a template for reverse transcription to produce single-stranded DNA in the sense orientation. During this step, dUTP was incorporated. The DNA was then fragmented using uracil DNA glycosylase (UDG) and apurinic/apyrimidinic endonuclease 1 (APE 1) and labeled with DNA labeling reagent covalently linked to biotin using terminal deoxynucleotidyl transferase (TdT, GENECHIP® WT PLUS Reagent Kit, Affymetrix). IVT and cDNA fragmentation quality controls were carried out by running an mRNA Pico assay in the Agilent 2100 Bioanalyzer. […]

[2] = test system: CD11b+ bone marrow derived CFSE-labeled monocytes; experiment: Monocyte tracking experiment; format: in vivo, mouse; settings: TMP195 treatment of recipient mice vs DMSO
Method: Monocyte tracking was adapted and modified from Qian et al.^35 Bone marrow cells were isolated from approximately 80 day old wild-type FVB/N virgin females. CD11b+ cells were isolated with CD11b MicroBeads (Miltenyi Biotec 130-049-601) using LS magnetic separation columns (Miltenyi Biotec 130-042-401) per manufacturer's instruction. CD11b^+ cells were incubated with 10 μM of CFSE (ThermoFisher C34554) for 15 minutes at 37° C. […] Mice were treated for an additional 5 days and tumors were harvested. The percent of CD11b^+ CFSE^+ double positive cells was assessed by flow cytometry.

Human monocytes = experiment: In vitro antigen presenting cell (APC) and T cell proliferation experiments; format: cell-based
From the text: Blood was collected from healthy donors according to the guidelines of the American Association of Blood Banks and under an IRB-approved informed consent form was purchased from Research Blood Components (Boston, Mass.). Human monocytes were isolated from buffy coat preparations via positive selection as per the manufacturer's instructions (StemCell Technologies, Catalog #18058). Monocytes were differentiated into antigen presenting cells in RPMI Medium 1640 supplemented with GLUTAMAX™ (GIBCO), fetal bovine serum (10% v/v), IL-4 (10 ng/ml), GM-CSF (50 ng/ml), penicillin (100 U/ml), and streptomycin (100 ug/ml) for 5 days in the presence of either 0.1% (v/v) DMSO or 300 nM TMP195. Cells were collected by washing and incubation with a solution of 5 mM EDTA in PBS (Ca2^+ and Mg2^+-free), prior to flow cytometric analysis of CD80 (Biolegend #305208) and CD86 (Biolegend #305418). Alternatively, harvested APCs were counted and co-cultured in culture medium (no DMSO or inhibitor present) with heterologous CD4^+ T cells (isolated from buffy coats via negative selection following manufacturer's instructions, StemCell Technologies, Catalog #15062) that had been labeled with CELLTRACE™ CFSE (ThermoFisher catalog #C34554) at a 10:1 T cell:APC ratio. T cell proliferation was stimulated by the addition of 200 pg/ml anti-CD3 (Biolegend Catalog #317326), and proliferation was quantified after 72 hours of co-culture by the dilution of CFSE using FlowJo software (version 9.4, Treestar, Inc.).

whole MMTV-PyMT tumors = experiment: Gene expression in RNA isolated from whole tumors after two weeks of treatment; format: in vivo, mouse; settings: two weeks TMP195 vs vehicle, n=3 mice per group
Method: All procedures were performed at Boston University Microarray Resource Facility as described in the […] ® Whole Transcript (WT) Plus Reagent Kit Manual (Affymetrix, Santa Clara, Calif.). Briefly, the total RNA was isolated using an RNEASY® kit (Qiagen), and the sample integrity was verified using RNA 6000 Pico Assay RNA chips run in Agilent 2100 Bioanalyzer (Agilent Technologies). […] The obtained cDNA was used as a template for in vitro transcription using GeneChip® WT Expression Kit (Life Technologies). […] During this step, dUTP was incorporated. […] IVT and cDNA fragmentation quality controls were carried out by running an mRNA Pico assay in the Agilent 2100 Bioanalyzer. The labeled fragmented DNA was hybridized to the Gene Arrays 1.0ST for 16-18 h in […] ® Hybridization oven 640 at 45° C. with rotation (60 r.p.m.). The hybridized samples were washed and stained using Affymetrix fluidics station 450 as per manufacturer's instruction (Hybridization, Washing and Staining kit, Affymetrix). Microarrays were immediately scanned using Affymetrix GeneArray Scanner 3000 7G Plus (Affymetrix).

[3] = TMP195 daily for 5 days vs DMSO
[4] = IL-4 and GM-CSF, 5 days, 300 nM TMP195 vs 0.1% DMSO

CC(C)(CNC(=O)c1cccc(-c2noc(C(F)(F)F)n2)c1)c1coc(-c2ccccc2)n1 [TMP195, N-(2-methyl-2-(2-phenyloxazol-4-yl)propyl)-3-(5-(trifluoromethyl)-1,2,4-oxadiazol-3-yl)benzamide]
number of differentially expressed probes (δ-factor >1.5) in CD3+ cells [1, 3]: 3 probes
number of differentially expressed probes (δ-factor >1.5) in CD11b+ cells [1, 3]: 26 probes
increase in gene expression in CD11b+ myeloid cells ([1]; TMP195 daily for 5 days vs DMSO, probes with δ-factor >1.5): up to 4.8 fold
IFNγ response gene signature in tumor-resident CD11b+ cells ([1]; TMP195 treatment): induced an IFNγ response gene signature
proportion of IV injected CD11bhiCFSE+ monocytes recruited to tumors [2]: significant increase; also recorded: significantly enhanced
T cell co-stimulatory function of monocytes differentiated to antigen presenting cells (Human monocytes; [4]): promoted T cell co-stimulatory function
proportion of cells expressing the co-stimulatory molecule CD86 (Human monocytes; [4]): increase
proliferation (Division Index) of CFSE-labeled naive CD4+ T cells co-cultured with differentiated monocytes (Human monocytes; monocytes differentiated in 300 nM TMP195 vs DMSO, 10:1 T cell:APC): higher degree of proliferation
differential gene expression in whole tumor RNA (whole MMTV-PyMT tumors): overall lack of differential gene expression

Reference: patent US20200268720A1, “METHODS OF USE OF A CLASS IIA HDAC INHIBITOR” (GlaxoSmithKline LLC, priority 2016, published 2020)
